# Literature values as cited in PMC2796340 (Journal of the American Chemical Society, 2009).
# Biological target: T1, Gal80 (Saccharomyces cerevisiae, UniProt P04387)
# T1 sequence (P04387 1-435): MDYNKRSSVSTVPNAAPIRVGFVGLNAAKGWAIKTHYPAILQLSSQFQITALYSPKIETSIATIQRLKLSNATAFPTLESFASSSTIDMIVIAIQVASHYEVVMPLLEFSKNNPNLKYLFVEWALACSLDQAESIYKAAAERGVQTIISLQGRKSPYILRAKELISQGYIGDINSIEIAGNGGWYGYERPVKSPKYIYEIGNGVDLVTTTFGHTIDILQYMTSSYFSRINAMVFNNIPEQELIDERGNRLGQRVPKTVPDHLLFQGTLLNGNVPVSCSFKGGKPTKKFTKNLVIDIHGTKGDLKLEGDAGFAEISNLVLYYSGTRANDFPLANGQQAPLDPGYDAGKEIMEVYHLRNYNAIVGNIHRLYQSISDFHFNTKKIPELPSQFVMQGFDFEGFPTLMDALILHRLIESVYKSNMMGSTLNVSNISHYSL
# Details: synthetic Gal4 activation domain peptide; ref [20]
sequence,measurement,value
MDQTAYNAFGITTGMFNTTTMD DVYNYLFDDEDT [Gal4 AD],binding to the Gal80 repressor site,binds the Gal80 repressor site with high affinity
